Results taken from ChEMBL document CHEMBL1909046, “DrugMatrix in vitro pharmacology data”.

How the values were obtained:
[1] = target: Beta-2 adrenergic receptor (Homo sapiens, UniProt P07550); experiment: DRUGMATRIX: Adrenergic beta2 radioligand binding (ligand: [3H] CGP-12177); type: cell membranes, Membrane; details: cho; Not Active = under 50% inhibition at 10 µM
[2] = target: Beta-3 adrenergic receptor (Homo sapiens, UniProt P13945); experiment: DRUGMATRIX: Adrenergic beta3 radioligand binding (ligand: [125I] Cyanopindolol); type: cell membranes, HEK293, Membrane; details: hek293; Not Active = under 50% inhibition at 10 µM
Thromboxane-A synthase = target: T1, Thromboxane-A synthase (Homo sapiens, UniProt P24557); experiment: biochemical; type: tissue-based, Platelet; details: platelet;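 note: enzyme inhibition assay with PGH2 supplied as substrate; in other assays of this panel Not Active means under 50% inhibition at 10 µM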
T1 sequence (P24557 whole entry): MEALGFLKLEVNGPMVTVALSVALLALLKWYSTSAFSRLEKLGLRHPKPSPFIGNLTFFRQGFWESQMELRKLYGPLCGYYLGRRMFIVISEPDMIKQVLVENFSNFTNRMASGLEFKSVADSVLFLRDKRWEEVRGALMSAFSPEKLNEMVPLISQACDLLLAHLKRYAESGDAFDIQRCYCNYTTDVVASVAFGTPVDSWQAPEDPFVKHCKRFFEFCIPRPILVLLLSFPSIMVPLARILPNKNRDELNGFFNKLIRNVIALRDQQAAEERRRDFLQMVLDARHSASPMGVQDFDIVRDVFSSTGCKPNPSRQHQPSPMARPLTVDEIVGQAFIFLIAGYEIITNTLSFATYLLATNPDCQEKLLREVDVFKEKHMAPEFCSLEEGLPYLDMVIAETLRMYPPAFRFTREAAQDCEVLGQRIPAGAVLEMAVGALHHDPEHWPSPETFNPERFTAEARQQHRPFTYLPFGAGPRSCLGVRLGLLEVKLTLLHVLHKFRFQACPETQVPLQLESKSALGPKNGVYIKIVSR

Carbonic anhydrase 2 = Carbonic anhydrase 2 (Homo sapiens, UniProt P00918); experiment: DRUGMATRIX: Carbonic Anhydrase II enzyme inhibition (substrate: 4-Nitrophenyl acetate (4-NPA)); type: tissue-based, Erythrocyte; details: erythrocyte; Not Active = under 50% inhibition at 10 µM
[3] = target: C-C chemokine receptor type 2 (Homo sapiens, UniProt P41597); type: cell membranes, CHO-K1, Membrane; details: cho-k1; note: in other assays of this panel Not Active means under 50% inhibition at 10 µM
[4] = target: T2, C-X-C chemokine receptor type 2 (Homo sapiens, UniProt P25025); type: cell membranes, Membrane; details: cho-k1; note: in other assays of this panel Not Active means under 50% inhibition at 10 µM
T2 sequence (P25025 whole entry): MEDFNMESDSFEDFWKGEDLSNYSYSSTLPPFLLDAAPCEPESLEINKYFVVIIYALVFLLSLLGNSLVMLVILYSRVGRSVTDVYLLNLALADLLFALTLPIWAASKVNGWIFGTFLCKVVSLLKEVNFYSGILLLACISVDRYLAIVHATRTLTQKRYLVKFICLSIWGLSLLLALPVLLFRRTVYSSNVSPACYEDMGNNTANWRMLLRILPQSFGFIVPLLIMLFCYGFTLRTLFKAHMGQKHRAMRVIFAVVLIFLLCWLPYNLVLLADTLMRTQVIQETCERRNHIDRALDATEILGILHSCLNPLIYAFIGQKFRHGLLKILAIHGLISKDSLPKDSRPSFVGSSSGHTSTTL

[5] = DRUGMATRIX: Glutamate, Kainate radioligand binding (ligand: [3H] Kainic acid); type: cell membranes, Rattus norvegicus, Wistar, Brain, Membrane; details: Not Active = under 50% inhibition at 10 µM
Glycine receptor = Glycine receptor (Rattus norvegicus, UniProt P22771+P24524+P07727+P20781); type: cell membranes, Wistar, Spinal cord, Membrane; note: in other assays of this panel Not Active means under 50% inhibition at 10 µM
[6] = target: T3, Cysteinyl leukotriene receptor 1 (Homo sapiens, UniProt Q9Y271); type: cell membranes, CHO-K1, Membrane; details: cho-k1; note: in other assays of this panel Not Active means under 50% inhibition at 10 µM
T3 sequence (Q9Y271 whole entry): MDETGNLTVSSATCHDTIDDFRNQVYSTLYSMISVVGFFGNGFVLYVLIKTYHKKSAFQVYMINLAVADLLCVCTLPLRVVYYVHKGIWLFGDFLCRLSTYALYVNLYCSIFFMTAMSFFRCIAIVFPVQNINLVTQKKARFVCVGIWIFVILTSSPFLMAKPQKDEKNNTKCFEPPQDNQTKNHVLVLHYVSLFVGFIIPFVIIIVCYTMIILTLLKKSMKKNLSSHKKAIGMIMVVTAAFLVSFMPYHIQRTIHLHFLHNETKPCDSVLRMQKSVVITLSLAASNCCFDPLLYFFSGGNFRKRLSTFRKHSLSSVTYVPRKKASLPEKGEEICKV

[7] = target: Platelet-activating factor receptor (Homo sapiens, UniProt P25105); experiment: biochemical; type: tissue-based; details: platelet; note: in other assays of this panel Not Active means under 50% inhibition at 10 µM
[8] = target: Tyrosine-protein kinase Lck (Homo sapiens, UniProt P06239); experiment: DRUGMATRIX: Protein Tyrosine Kinase, LCK enzyme inhibition (substrate: Poly(Glu:Tyr)); type: cell-based, Insect cells; details: Not Active = under 50% inhibition at 10 µM
Sequence of Tyrosine-protein kinase Lck (P06239 whole entry): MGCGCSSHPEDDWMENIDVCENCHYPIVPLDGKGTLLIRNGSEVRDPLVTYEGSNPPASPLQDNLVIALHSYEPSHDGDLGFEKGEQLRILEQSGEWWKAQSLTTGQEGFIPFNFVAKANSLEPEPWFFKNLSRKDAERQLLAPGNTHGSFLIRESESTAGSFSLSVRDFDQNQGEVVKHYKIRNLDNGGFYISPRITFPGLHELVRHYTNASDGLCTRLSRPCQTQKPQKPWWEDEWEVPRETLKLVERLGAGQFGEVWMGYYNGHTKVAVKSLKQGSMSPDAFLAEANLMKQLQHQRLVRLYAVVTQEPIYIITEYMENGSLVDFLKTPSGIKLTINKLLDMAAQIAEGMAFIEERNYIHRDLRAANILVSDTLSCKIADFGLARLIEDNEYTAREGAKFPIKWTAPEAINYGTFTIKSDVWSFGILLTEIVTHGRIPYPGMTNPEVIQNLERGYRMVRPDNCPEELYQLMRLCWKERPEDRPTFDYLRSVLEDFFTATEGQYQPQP

Sequence of Platelet-activating factor receptor (P25105 whole entry): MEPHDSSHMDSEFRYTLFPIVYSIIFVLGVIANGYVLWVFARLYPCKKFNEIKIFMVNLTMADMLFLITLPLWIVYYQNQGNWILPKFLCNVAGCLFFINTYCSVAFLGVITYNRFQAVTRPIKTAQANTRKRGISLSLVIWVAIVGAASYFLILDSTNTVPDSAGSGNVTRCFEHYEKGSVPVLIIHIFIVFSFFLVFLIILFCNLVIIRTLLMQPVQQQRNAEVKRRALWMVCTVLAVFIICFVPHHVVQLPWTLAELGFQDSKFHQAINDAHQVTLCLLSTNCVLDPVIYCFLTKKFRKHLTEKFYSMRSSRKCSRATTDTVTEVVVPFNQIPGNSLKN
Sequence of C-C chemokine receptor type 2 (P41597 whole entry): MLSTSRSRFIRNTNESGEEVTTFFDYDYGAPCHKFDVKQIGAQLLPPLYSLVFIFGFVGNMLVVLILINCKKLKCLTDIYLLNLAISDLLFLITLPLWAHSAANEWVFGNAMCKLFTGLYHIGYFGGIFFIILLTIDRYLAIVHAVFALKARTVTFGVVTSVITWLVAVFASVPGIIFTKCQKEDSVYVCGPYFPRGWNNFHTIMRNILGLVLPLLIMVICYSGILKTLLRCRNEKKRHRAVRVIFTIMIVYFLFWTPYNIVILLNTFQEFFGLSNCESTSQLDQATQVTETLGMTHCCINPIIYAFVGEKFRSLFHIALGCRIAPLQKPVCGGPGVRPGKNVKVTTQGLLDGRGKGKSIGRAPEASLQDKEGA
Sequence of Beta-3 adrenergic receptor (P13945 whole entry): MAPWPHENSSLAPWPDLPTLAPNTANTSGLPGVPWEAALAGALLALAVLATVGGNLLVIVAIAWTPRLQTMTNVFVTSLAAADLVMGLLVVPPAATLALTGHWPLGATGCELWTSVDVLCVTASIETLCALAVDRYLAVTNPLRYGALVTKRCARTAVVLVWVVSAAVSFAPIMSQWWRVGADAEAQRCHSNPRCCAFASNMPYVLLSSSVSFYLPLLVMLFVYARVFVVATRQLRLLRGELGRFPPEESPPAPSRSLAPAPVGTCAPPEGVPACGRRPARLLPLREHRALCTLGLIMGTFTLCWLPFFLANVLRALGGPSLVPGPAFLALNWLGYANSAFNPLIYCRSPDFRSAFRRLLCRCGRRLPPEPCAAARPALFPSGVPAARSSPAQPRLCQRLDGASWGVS

Row | Compound | IC50 [1] | IC50 [2] | IC50 (Thromboxane-A synthase) | IC50 (Carbonic anhydrase 2) | IC50 [3] | IC50 [4] | IC50 [5] | Ki [5] | IC50 (Glycine receptor) | IC50 [6] | IC50 [7] | IC50 ([8]; insect cells) | also measured
1 | O=[N+]([O-])c1cc([As](=O)(O)O)ccc1O [ROXARSONE] | Not Active | Not Active | Not Active | Not Active | Not Active | Not Active | Not Active | Not Active | Not Active | Not Active | Not Active | Not Active | Ki [1]: Not Active; Ki [2]: Not Active; Ki (Thromboxane-A synthase): Not Active; Ki (Carbonic anhydrase 2): Not Active; Ki [3]: Not Active; Ki [4]: Not Active; Ki (Glycine receptor): Not Active; Ki [6]: Not Active; Ki [7]: Not Active; Ki ([8]; insect cells): Not Active
2 | COc1ccc(CCN2CCC(Nc3nc4ccccc4n3Cc3ccc(F)cc3)CC2)cc1 [ASTEMIZOLE] | Not Active | – | Not Active | Not Active | Not Active | Not Active | – | – | Not Active | Not Active | Not Active | – | IC50 ([8]; read-out: IC50): 19900 nM
3 | IVERMECTIN | Not Active | Not Active | Not Active | Not Active | Not Active | Not Active | Not Active | Not Active | – | Not Active | Not Active | Not Active | Ki [1]: Not Active; Ki [2]: Not Active; Ki (Thromboxane-A synthase): Not Active; Ki (Carbonic anhydrase 2): Not Active; Ki [3]: Not Active; Ki [4]: Not Active; IC50 (Glycine receptor; read-out: IC50): 375 nM; Ki (Glycine receptor; read-out: Ki): 212 nM; Ki [6]: Not Active; Ki [7]: Not Active; Ki ([8]; insect cells): Not Active
4 | CSc1ccc2c(c1)N(CCC1CCCCN1C)c1ccccc1S2 (configuration not stated) [THIORIDAZINE] | Not Active | Not Active | Not Active | Not Active | Not Active | Not Active | – | – | Not Active | Not Active | Not Active | Not Active | –
5 | COc1ccc(C(CN(C)C)C2(O)CCCCC2)cc1 (configuration not stated) [VENLAFAXINE] | Not Active | Not Active | Not Active | Not Active | Not Active | Not Active | Not Active | Not Active | Not Active | Not Active | Not Active | Not Active | –
6 | COc1cccc(C2(O)CCCCC2CN(C)C)c1 (configuration not stated) [TRAMADOL] | Not Active | Not Active | Not Active | Not Active | Not Active | Not Active | – | – | Not Active | Not Active | Not Active | Not Active | –
7 | NNc1ccccc1 [PHENYLHYDRAZINE] | Not Active | Not Active | Not Active | Not Active | Not Active | Not Active | Not Active | Not Active | Not Active | Not Active | Not Active | Not Active | –
